Assay [1] has as its system Bacillus subtilis. The experiment in a line: Antibiofilm activity against Bacillus subtilis MTCC 121 after 24 hrs by crystal violet staining method. The class given is functional, organism-based. The settings on record: MTCC 121, 24 h.
Assay [2] relates to Staphylococcus aureus. The experiment in a line: Antibiofilm activity against Staphylococcus aureus MTCC 96 after 24 hrs by crystal violet staining method. The class given is functional, organism-based. The settings on record: MTCC 96, 24 h.
Assay [3] deals with Micrococcus luteus. The experiment in a line: Antibacterial activity against Micrococcus luteus MTCC 2470 assessed as inhibition zone after 24 hrs at 30 degC by well diffusion method. The class given is functional. The settings on record: MTCC 2470, 24 h. (A growth-free zone around the sample is the usual read-out of agar diffusion tests.)
For assay [4], the system named is Staphylococcus aureus. The experiment in a line: Antibacterial activity against Staphylococcus aureus MTCC 96 […] after 24 hrs at 30 degC by well diffusion method. The class given is functional. The settings on record: MTCC 96, 24 h.
For assay [5], the system named is Staphylococcus aureus. The experiment in a line: Antibacterial activity against Staphylococcus aureus MLS-16 MTCC 2940 assessed as inhibition zone after 24 hrs at 30 degC by well diffusion method. The class given is functional. The settings on record: MLS-16 MTCC 2940, 24 h.
The subject of assay [6] is Bacillus subtilis. The experiment in a line: Antibacterial activity against Bacillus subtilis MTCC 121 assessed as inhibition zone after 24 hrs at 30 degC by well diffusion method. The class given is functional. The settings on record: MTCC 121, 24 h.
Assay [7] concerns Escherichia coli. The experiment in a line: Antibacterial activity against Escherichia coli MTCC 739 assessed as inhibition zone after 24 hrs at 30 degC by well diffusion method. The settings on record: MTCC 739, 24 h. The class given is functional.
For assay [8], the system named is Pseudomonas aeruginosa. The experiment in a line: Antibacterial activity against Pseudomonas aeruginosa MTCC 2453 assessed as inhibition zone after 24 hrs at 30 degC by well diffusion method. The class given is functional. The settings on record: MTCC 2453, 24 h.
Assay [9] has as its system Raoultella planticola. The experiment in a line: Antibacterial activity against Klebsiella planticola MTCC 530 assessed as inhibition zone after 24 hrs at 30 degC by well diffusion method. The class given is functional. The settings on record: MTCC 530, 24 h.
The test system of assay [10] is Bacillus subtilis. The experiment in a line: Bactericidal activity against Bacillus subtilis MTCC 121 assessed as microbial killing after 24 hrs. The class given is functional. The settings on record: MTCC 121, 24 h.
The subject of assay [11] is Staphylococcus aureus. The experiment in a line: Bactericidal activity against Staphylococcus aureus MTCC 96 assessed as microbial killing after 24 hrs. The settings on record: MTCC 96, 24 h. The class given is functional.
Assay [12] concerns Staphylococcus aureus. The experiment in a line: Bactericidal activity against Staphylococcus aureus MLS-16 MTCC 2940 assessed as microbial killing after 24 hrs. The class given is functional. The settings on record: MLS-16 MTCC 2940, 24 h.
The subject of assay [13] is Escherichia coli. The experiment in a line: Bactericidal activity against Escherichia coli MTCC 739 assessed as microbial killing after 24 hrs. The class given is functional. The settings on record: MTCC 739, 24 h.
In assay [14] the test system is Staphylococcus aureus. The experiment in a line: Antibiofilm activity against Staphylococcus aureus MLS-16 MTCC 2940 after 24 hrs by crystal violet staining method. The class given is functional, organism-based. The settings on record: MLS-16 MTCC 2940, 24 h.
For assay [15], the system named is Escherichia coli. The experiment in a line: Antibiofilm activity against Escherichia coli MTCC 739 after 24 hrs by crystal violet staining method. The settings on record: MTCC 739, 24 h. The class given is functional, organism-based.

≈ marks a conversion by molar mass, not a printed value.

One may read the IC50 as the point on the concentration scale where inhibition reaches its midpoint. Higher therefore signals a need for much substance. As usually defined, the MIC is the least concentration at which growth counts as inhibited. A word on the MBC: it is the lowest tested concentration that kills the bacteria rather than only halting them.

On to `O=C(O)c1cn(C2CC2)c2cc(N3CCNCC3)c(F)cc2c1=O` [CIPROFLOXACIN], for which the IC50 in [1] came to 0.7 µg/mL (≈ 2.11 µM); in assay [2], 0.6 µg/mL (≈ 1.81 µM); in [14], 0.4 µg/mL (≈ 1.21 µM); in assay [15] it was 0.5 µg/mL (≈ 1.51 µM). The MIC in assay [3], in [4], in assay [5], in assay [6], in assay [7] and in assay [8] was 0.9 µg/mL (≈ 2.72 µM) throughout. Moreover, the MIC in [9] was 0.9 µg/mL (≈ 2.72 µM). Besides, the MBC in assay [10] was found to be 1.9 µg/mL (≈ 5.73 µM); in assay [11], 0.9 µg/mL (≈ 2.72 µM); in assay [12] it was 0.9 µg/mL (≈ 2.72 µM); in assay [13], 0.9 µg/mL (≈ 2.72 µM).

These data come from ChEMBL document CHEMBL3745709, “Synthesis of novel ethyl 1-ethyl-6-fluoro-7-(fatty amido)-1,4-dihydro-4-oxoquinoline-3-carboxylate derivatives and their biological evaluation” (Bioorg Med Chem Lett, 2016).
